From patent US10961236B2, “(S)-2-(1-cyclopropylethyl)-5-(4-methyl-2-((6-(2-oxopyrrolidin-1-yl)pyridin-2-yl)amino) thiazol-5-yl)-7-(methylsulfonyl)isoindolin-1-one as a phosphatidylinositol 3-kinase inhibitor” (AstraZeneca AB, priority 2016, dated 2021)

What was measured:
Assay type in all cases: biochemical
[1] = molecular target: recombinant human PI3Kβ (6-His(p110-p85α)) (Homo sapiens (Human), UniProt P42338); test: Enzymatic activity assay for recombinant human PI3Kβ (ADP-Glo); conditions: 1.2 nM PI3Kβ, 20 μM ATP, 80 μM DiC8-PIP2, ADP-Glo
Chain of recombinant human PI3Kβ (6-His(p110-p85α)) (P42338 whole entry): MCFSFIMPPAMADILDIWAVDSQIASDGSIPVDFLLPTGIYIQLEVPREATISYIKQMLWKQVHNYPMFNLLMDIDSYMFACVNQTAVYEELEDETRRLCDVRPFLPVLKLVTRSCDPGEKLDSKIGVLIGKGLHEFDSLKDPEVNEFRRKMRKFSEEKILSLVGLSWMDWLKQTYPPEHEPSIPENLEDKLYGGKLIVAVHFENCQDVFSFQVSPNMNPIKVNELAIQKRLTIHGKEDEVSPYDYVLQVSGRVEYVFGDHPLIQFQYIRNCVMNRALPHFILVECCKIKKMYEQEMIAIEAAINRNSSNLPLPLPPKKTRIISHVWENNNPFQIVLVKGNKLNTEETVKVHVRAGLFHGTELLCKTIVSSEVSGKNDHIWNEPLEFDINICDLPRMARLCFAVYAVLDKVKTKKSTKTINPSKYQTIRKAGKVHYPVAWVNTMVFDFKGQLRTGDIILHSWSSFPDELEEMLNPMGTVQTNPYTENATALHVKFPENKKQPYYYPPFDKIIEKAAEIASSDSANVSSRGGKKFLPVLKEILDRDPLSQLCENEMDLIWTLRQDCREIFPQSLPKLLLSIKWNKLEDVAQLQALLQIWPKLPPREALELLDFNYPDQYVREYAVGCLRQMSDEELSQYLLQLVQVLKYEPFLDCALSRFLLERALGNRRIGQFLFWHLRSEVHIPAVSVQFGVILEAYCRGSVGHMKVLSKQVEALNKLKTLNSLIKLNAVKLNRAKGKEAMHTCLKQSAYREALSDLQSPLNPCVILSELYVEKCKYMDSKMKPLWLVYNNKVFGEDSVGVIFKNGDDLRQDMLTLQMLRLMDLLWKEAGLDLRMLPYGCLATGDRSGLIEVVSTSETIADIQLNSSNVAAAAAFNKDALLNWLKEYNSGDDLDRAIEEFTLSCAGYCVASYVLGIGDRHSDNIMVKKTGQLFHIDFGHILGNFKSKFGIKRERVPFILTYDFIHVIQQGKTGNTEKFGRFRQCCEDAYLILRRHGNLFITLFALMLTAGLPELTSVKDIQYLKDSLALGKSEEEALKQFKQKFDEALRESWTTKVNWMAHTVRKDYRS
Chain of recombinant human PI3Kβ (6-His(p110-p85α)) (P27986 whole entry partner): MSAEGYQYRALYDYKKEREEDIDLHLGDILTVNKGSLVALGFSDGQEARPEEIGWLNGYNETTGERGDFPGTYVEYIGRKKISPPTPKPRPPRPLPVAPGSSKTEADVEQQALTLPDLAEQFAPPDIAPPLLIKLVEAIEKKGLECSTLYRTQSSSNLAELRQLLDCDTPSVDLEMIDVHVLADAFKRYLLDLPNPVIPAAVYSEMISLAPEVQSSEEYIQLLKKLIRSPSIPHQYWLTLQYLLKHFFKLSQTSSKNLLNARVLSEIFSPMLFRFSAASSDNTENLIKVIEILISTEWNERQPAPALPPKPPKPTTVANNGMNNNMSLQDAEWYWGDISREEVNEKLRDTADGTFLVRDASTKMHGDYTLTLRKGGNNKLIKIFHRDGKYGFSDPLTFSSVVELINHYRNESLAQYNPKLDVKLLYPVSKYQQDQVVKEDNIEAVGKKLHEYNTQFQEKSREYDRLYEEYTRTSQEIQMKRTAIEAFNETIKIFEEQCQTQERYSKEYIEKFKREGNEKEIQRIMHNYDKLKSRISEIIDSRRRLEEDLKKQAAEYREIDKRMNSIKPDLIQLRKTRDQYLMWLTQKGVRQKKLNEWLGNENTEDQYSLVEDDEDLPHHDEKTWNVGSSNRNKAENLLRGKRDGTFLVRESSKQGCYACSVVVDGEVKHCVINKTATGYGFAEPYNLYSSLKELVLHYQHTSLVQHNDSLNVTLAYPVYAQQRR
Experimental: (§1) Enzymatic Activity Assay for Recombinant Human PI3K α, β, δ and γ.
(§2) The activity of recombinant human PI3Kγ ((aa144-1102)-6His) and PI3Kα, β, δ (6-His(p110-p85α)) was determined by measuring the ADP level after phosphorylation of DiC8-PIP2 using a commercially available ADP-Glo™ kit from Promega. The assay was carried out in white low volume 384 well plates in a final volume of 14 μl at R.T. The assay conditions contained the following: 50 mM Tris buffer pH 7.4, 2.1 mM DTT, 3 mM MgCl2, 0.05% CHAPS, 20 μM ATP, 80 μM DiC8-PIP2 and 1.2 nM PI3Kα, β, γ or 0.6 nM PI3Kδ. Potential inhibitors were made up in DMSO and then diluted in the assay to give a final concentration of not exceeding 1% (v/v) DMSO. […] Routinely, inhibitors were pre-incubated with 3 μl of enzyme for 15 min prior to the addition of 2 μl substrate mixture for a further 60 min enzyme reaction. The phosphorylation was stopped with the addition of 3 μl ADP-Glo™ reagent (stop solution) followed by a 40 min incubation. Prior to detection 6 μl of ADP-Glo™ Kinase Detection Reagent was added and the plates were read in a micro plate reader using a Luminescence filter. All additions were followed by a short centrifugation step.

[2] = molecular target: recombinant human PI3Kδ (6-His(p110-p85α)) (Homo sapiens (Human), UniProt O00329); test: Enzymatic activity assay for recombinant human PI3Kδ (ADP-Glo); conditions: 0.6 nM PI3Kδ, 20 μM ATP, 80 μM DiC8-PIP2, ADP-Glo
Chain of recombinant human PI3Kδ (6-His(p110-p85α)) (O00329 whole entry): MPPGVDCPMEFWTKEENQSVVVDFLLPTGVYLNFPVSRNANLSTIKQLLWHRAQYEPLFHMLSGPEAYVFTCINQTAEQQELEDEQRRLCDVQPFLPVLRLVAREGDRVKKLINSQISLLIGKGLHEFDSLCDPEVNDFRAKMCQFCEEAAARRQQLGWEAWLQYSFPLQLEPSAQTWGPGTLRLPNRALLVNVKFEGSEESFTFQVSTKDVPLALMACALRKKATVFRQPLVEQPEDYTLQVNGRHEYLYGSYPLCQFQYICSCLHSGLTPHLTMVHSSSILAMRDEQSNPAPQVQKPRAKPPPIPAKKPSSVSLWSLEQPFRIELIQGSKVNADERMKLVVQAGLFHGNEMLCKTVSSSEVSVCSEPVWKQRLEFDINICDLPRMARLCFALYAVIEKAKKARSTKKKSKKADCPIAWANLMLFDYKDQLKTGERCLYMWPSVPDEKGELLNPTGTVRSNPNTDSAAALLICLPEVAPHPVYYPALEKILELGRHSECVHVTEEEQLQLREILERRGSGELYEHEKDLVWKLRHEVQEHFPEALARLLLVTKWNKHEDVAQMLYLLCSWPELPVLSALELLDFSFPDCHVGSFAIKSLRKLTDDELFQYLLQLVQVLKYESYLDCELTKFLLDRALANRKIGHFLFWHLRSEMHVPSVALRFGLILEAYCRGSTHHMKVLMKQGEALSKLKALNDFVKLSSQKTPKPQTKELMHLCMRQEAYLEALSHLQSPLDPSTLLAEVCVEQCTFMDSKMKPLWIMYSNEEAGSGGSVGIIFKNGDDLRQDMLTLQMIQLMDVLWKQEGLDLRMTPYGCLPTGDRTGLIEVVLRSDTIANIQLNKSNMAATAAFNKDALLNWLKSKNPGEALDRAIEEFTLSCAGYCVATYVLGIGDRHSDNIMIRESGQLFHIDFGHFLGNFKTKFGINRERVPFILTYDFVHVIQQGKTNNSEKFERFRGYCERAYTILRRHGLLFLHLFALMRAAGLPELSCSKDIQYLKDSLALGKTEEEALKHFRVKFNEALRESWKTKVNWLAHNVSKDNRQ
Chain of recombinant human PI3Kδ (6-His(p110-p85α)) (P27986 whole entry partner): as the sequence (P27986 whole entry partner) above
Experimental: as §1
as §2, with “PI3Kδ.” for “PI3Kδ. Potential inhibitors were made up in DMSO and then diluted in the assay to give a final concentration of not exceeding 1% (v/v) DMSO.”

[3] = molecular target: recombinant human PI3Kγ ((aa144-1102)-6His) (Homo sapiens (Human), UniProt P48736); test: Enzymatic activity assay for recombinant human PI3Kγ (ADP-Glo); conditions: 1.2 nM PI3Kγ, 20 μM ATP, 80 μM DiC8-PIP2, ADP-Glo
Chain of recombinant human PI3Kγ ((aa144-1102)-6His) (P48736 144-1102): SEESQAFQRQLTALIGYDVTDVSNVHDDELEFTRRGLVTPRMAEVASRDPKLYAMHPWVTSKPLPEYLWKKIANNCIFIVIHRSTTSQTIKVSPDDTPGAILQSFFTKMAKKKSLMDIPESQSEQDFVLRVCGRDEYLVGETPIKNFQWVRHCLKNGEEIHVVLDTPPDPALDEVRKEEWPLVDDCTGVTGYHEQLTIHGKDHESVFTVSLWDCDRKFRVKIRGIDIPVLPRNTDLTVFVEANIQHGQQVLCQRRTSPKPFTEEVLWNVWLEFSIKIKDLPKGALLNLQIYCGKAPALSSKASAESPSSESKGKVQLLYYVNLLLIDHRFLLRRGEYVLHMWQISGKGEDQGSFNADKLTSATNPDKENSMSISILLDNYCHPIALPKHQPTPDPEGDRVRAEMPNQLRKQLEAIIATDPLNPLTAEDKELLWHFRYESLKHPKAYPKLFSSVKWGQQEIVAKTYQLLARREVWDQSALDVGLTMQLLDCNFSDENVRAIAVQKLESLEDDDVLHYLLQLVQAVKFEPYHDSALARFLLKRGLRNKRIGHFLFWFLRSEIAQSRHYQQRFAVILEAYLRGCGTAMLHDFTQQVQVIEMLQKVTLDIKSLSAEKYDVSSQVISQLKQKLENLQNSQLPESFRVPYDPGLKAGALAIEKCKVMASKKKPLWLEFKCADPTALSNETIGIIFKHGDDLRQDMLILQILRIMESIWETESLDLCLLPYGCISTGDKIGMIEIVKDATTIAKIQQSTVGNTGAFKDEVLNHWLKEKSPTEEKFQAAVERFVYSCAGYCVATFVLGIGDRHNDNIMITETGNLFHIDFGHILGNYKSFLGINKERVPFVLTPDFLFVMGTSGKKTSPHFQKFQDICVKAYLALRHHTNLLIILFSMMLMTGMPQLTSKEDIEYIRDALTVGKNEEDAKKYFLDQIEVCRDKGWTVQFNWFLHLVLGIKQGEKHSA
Experimental: as §1
as §2, with “PI3Kδ.” for “PI3Kδ. Potential inhibitors were made up in DMSO and then diluted in the assay to give a final concentration of not exceeding 1% (v/v) DMSO.”

[4] = molecular target: recombinant human PI3Kα (6-His(p110-p85α)) (Homo sapiens (Human), UniProt P42336); test: Enzymatic activity assay for recombinant human PI3Kα (ADP-Glo); conditions: 1.2 nM PI3Kα, 20 μM ATP, 80 μM DiC8-PIP2, ADP-Glo
Chain of recombinant human PI3Kα (6-His(p110-p85α)) (P42336 whole entry): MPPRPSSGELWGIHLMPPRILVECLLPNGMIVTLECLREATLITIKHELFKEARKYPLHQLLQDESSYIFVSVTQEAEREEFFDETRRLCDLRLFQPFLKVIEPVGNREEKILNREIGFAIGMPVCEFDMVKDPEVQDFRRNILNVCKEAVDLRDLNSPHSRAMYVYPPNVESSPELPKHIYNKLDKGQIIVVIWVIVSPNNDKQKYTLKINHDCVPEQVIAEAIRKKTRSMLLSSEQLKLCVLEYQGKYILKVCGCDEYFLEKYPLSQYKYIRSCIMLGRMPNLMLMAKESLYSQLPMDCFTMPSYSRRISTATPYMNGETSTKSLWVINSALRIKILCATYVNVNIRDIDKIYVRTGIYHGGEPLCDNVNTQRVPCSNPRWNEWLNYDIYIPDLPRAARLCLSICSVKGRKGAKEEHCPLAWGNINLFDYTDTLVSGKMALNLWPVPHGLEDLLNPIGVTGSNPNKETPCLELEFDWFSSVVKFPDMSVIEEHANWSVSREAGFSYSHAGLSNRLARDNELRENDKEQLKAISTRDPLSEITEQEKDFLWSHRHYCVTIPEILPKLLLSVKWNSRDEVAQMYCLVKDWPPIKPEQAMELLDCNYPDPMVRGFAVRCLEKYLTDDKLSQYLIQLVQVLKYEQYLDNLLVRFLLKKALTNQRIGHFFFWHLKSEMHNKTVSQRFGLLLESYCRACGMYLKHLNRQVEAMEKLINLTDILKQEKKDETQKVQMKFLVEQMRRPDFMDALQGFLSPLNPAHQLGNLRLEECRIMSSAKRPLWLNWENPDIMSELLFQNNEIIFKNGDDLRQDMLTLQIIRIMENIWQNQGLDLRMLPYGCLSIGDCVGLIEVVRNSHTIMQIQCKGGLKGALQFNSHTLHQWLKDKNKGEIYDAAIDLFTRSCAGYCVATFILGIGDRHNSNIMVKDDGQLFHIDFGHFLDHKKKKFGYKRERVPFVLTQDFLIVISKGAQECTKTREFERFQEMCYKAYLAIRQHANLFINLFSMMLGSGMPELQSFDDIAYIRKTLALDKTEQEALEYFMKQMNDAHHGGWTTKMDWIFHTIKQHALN
Chain of recombinant human PI3Kα (6-His(p110-p85α)) (P27986 whole entry partner): as the sequence (P27986 whole entry partner) above
Experimental: as §1, §2

| Structure (SMILES) | IC50 [1] [nM] | IC50 [2] [nM] | IC50 [3] [nM] | IC50 [4] [nM] |
| --- | --- | --- | --- | --- |
| Cc1nc(Nc2cccc(N3CCCC3=O)n2)sc1-c1cc2c(c(S(C)(=O)=O)c1)C(=O)N([C@@H](C)C1CC1)C2 [Example 1, 2-[(1S)-1-Cyclopropylethyl]-5-(4-methyl-2-{[6-(2-oxopyrrolidin-1-yl)pyridin-2-yl]amino}-1,3-thiazol-5-yl)-7-(methylsulfonyl)-2,3-dihydro-1H-isoindol-1-one] | 1360 | 0.7 | 0.9 | 55 |
| CC(=O)Nc1cccc(Nc2nc(C)c(-c3cc4c(c(S(C)(=O)=O)c3)C(=O)N([C@@H](C)C3CC3)C4)s2)n1 [Example 2, N-{6-[(5-{2-[(1S)-1-Cyclopropylethyl]-7-(methylsulfonyl)-1-oxo-2,3-dihydro-1H-isoindol-5-yl}-4-methyl-1,3-thiazol-2-yl)amino]pyridin-2-yl}acetamide] | 3730 | 19.6 | 0.9 | 263 |
| CC(=O)N(C)c1cccc(Nc2nc(C)c(-c3cc4c(c(S(C)(=O)=O)c3)C(=O)N([C@@H](C)C3CC3)C4)s2)n1 [Example 3, N-{6-[(5-{2-[(1S)-1-Cyclopropylethyl]-7-(methylsulfonyl)-1-oxo-2,3-dihydro-1H-isoindol-5-yl}-4-methyl-1,3-thiazol-2-yl)amino]pyridin-2-yl}-N-methylacetamide] | 1180 | 1.4 | 0.8 | 127 |
| Cc1nc(Nc2cccc(N3CCCCC3=O)n2)sc1-c1cc2c(c(S(C)(=O)=O)c1)C(=O)N([C@@H](C)C1CC1)C2 [Example 4, 2-[(1S)-1-Cyclopropylethyl]-5-(4-methyl-2-{[6-(2-oxopiperidin-1-yl)pyridin-2-yl]amino}-1,3-thiazol-5-yl)-7-(methylsulfonyl)-2,3-dihydro-1H-isoindol-1-one] | 250 | – | 1 | 16 |
| Cc1nc(Nc2cccc(N3CCN(C)C3=O)n2)sc1-c1cc2c(c(S(C)(=O)=O)c1)C(=O)N([C@@H](C)C1CC1)C2 [Example 5, 2-[(1S)-1-Cyclopropylethyl]-5-(4-methyl-2-{[6-(3-methyl-2-oxoimidazolidin-1-yl)pyridin-2-yl]amino}-1,3-thiazol-5-yl)-7-(methylsulfonyl)-2,3-dihydro-1H-isoindol-1-one] | 4710 | 0.7 | 1.2 | 38 |
| Cc1nc(Nc2cccc(N3CCNC3=O)n2)sc1-c1cc2c(c(S(C)(=O)=O)c1)C(=O)N([C@@H](C)C1CC1)C2 [Example 6, 2-[(1S)-1-Cyclopropylethyl]-5-(4-methyl-2-{[6-(2-oxoimidazolidin-1-yl)pyridin-2-yl]amino}-1,3-thiazol-5-yl)-7-(methylsulfonyl)-2,3-dihydro-1H-isoindol-1-one] | 219 | 0.7 | 0.8 | 23 |
| Cc1nc(Nc2cccc(N3CCOCC3=O)n2)sc1-c1cc2c(c(S(C)(=O)=O)c1)C(=O)N([C@@H](C)C1CC1)C2 [Example 7, 2-[(1S)-1-Cyclopropylethyl]-5-(4-methyl-2-{[6-(3-oxomorpholin-4-yl)pyridin-2-yl]amino}-1,3-thiazol-5-yl)-7-(methylsulfonyl)-2,3-dihydro-1H-isoindol-1-one] | 688 | – | 0.9 | 57 |
| Cc1nc(Nc2cccc(N3CCCOC3=O)n2)sc1-c1cc2c(c(S(C)(=O)=O)c1)C(=O)N([C@@H](C)C1CC1)C2 [Example 8, 2-[(1S)-1-Cyclopropylethyl]-5-(4-methyl-2-{[6-(2-oxo-1,3-oxazinan-3-yl)pyridin-2-yl]amino}-1,3-thiazol-5-yl)-7-(methylsulfonyl)-2,3-dihydro-1H-isoindol-1-one] | 324 | 1.2 | 1.3 | 23 |
| Cc1nc(Nc2cccc(N3Cc4ncccc4C3=O)n2)sc1-c1cc2c(c(S(C)(=O)=O)c1)C(=O)N([C@@H](C)C1CC1)C2 [Example 9, 6-{6-[(5-{2-[(1S)-1-Cyclopropylethyl]-7-(methylsulfonyl)-1-oxo-2,3-dihydro-1H-isoindol-5-yl}-4-methyl-1,3-thiazol-2-yl)amino]pyridin-2-yl}-6,7-dihydro-5H-pyrrolo[3,4-b]pyridin-5-one] | 33300 | 2.7 | 1 | 11400 |
| Cc1nc(Nc2cccc(N3CCCC3=O)n2)sc1-c1cc2c(c(S(C)(=O)=O)c1)C(=O)N([C@@H](C)C(F)(F)F)C2 [Example 10, 5-(4-Methyl-2-{[6-(2-oxopyrrolidin-1-yl)pyridin-2-yl]amino}-1,3-thiazol-5-yl)-7-(methylsulfonyl)-2-[(2S)-1,1,1-trifluoropropan-2-yl]-2,3-dihydro-1H-isoindol-1-one] | 575 | – | 0.9 | 78 |
| Cc1nc(Nc2cccc(N3CCNC3=O)n2)sc1-c1cc2c(c(S(C)(=O)=O)c1)C(=O)N([C@@H](C)C(F)(F)F)C2 [Example 11, 5-(4-Methyl-2-{[6-(2-oxoimidazolidin-1-yl)pyridin-2-yl]amino}-1,3-thiazol-5-yl)-7-(methylsulfonyl)-2-[(2S)-1,1,1-trifluoropropan-2-yl]-2,3-dihydro-1H-isoindol-1-one] | 291 | 1.2 | 0.8 | 54 |
| Cc1nc(Nc2cccc(N3CCOC3=O)n2)sc1-c1cc2c(c(S(C)(=O)=O)c1)C(=O)N([C@@H](C)C(F)(F)F)C2 [Example 12, 5-(4-Methyl-2-{[6-(2-oxo-1,3-oxazolidin-3-yl)pyridin-2-yl]amino}-1,3-thiazol-5-yl)-7-(methylsulfonyl)-2-[(2S)-1,1,1-trifluoropropan-2-yl]-2,3-dihydro-1H-isoindol-1-one] | 4100 | 1.6 | 0.9 | 300 |
| CNS(=O)(=O)c1cc(-c2sc(Nc3cccc(N(C)C(C)=O)n3)nc2C)cc2c1C(=O)N([C@@H](C)C1CC1)C2 [Example 13, N-{6-[(5-{2-[(1S)-1-Cyclopropylethyl]-7-(methylsulfamoyl)-1-oxo-2,3-dihydro-1H-isoindol-5-yl}-4-methyl-1,3-thiazol-2-yl)amino]pyridin-2-yl}-N-methylacetamide] | 1570 | 1.1 | 0.8 | 68 |
| CNS(=O)(=O)c1cc(-c2sc(Nc3cccc(N4CCCCC4=O)n3)nc2C)cc2c1C(=O)N([C@@H](C)C1CC1)C2 [Example 19, 2-[(1S)-1-Cyclopropylethyl]-N-methyl-6-(4-methyl-2-{[6-(2-oxopiperidin-1-yl)pyridin-2-yl]amino}-1,3-thiazol-5-yl)-3-oxo-2,3-dihydro-1H-isoindole-4-sulfonamide] | 168 | – | – | 18 |
| Cc1nc(Nc2cccc(N3CCOCC3=O)n2)sc1-c1cc2c(c(S(=O)(=O)NC3COC3)c1)C(=O)N([C@@H](C)C1CC1)C2 [Example 31, 2-[(1S)-1-Cyclopropylethyl]-6-(4-methyl-2-{[6-(3-oxomorpholin-4-yl)pyridin-2-yl]amino}-1,3-thiazol-5-yl)-N-(oxetan-3-yl)-3-oxo-2,3-dihydro-1H-isoindole-4-sulfonamide] | 596 | – | 0.8 | 85 |
| CNS(=O)(=O)c1cc(-c2sc(Nc3cccc(N4CCCNCC4=O)n3)nc2C)cc2c1C(=O)N([C@@H](C)C1CC1)C2 [Example 52, 2-[(1S)-1-Cyclopropylethyl]-N-methyl-6-(4-methyl-2-{[6-(2-oxo-1,4-diazepan-1-yl)pyridin-2-yl]amino}-1,3-thiazol-5-yl)-3-oxo-2,3-dihydro-1H-isoindole-4-sulfonamide] | – | 18.9 | 22.5 | – |
